Measurements reported in US20260347361A1, “LRRK2 INHIBITORS AND USES THEREOF” (NEURON23, INC, priority 2022, published 2026).

Biological target: T1, wt human LRRK2 (Homo sapiens, UniProt Q5S007)
T1 construct: wt human LRRK2, catalytic site, catalytic site (ThermoFisher/USA); purchased ThermoFisher
Test: TR-FRET LanthaScreen Tb Kinase Activity Assay, inhibition of LRRK2 kinase
Format: biochemical
Details: 2 nM wt human LRRK2, 400 nM fluorescein-ERM (LRRKtide) peptide, 38 µM ATP, 15 min pre-incubation, 120 min at room temperature
Method: In Table 2, activity is provided as the following: “+++”=IC50 less than 50 nM; “++”=IC50 between 50 nM and 200 nM; “+”=IC50> or =200 nM.
The compounds listed in Table 2 were tested for their inhibitory effect on LRRK2 kinase according to the following procedures.
The protocol for basic TR-FRET LanthaScreen Tb Kinase Activity Assay inhibitor studies were as follows. LanthaScreen Kinase Activity Assays (ThermoFisher/USA) to evaluate inhibitors were performed by addition of 100 nl of test compound in corresponding DMSO dilutions/5 μl of kinase/fluorescein-ERM(LRRKtide) peptide mixture, Compound & kinase were pre-incubated for 15 minutes, then 5 μl of ATP into 384 well small volume plates. After incubation for 120 minutes at room temperature, the detection reagents containing Tb-anti-pLRRKtide antibody were added to monitor phosphorylation level of peptide. Then, after 60 min minutes incubation at room temperature plates were read in Envision. Data analysis of emission ratios was according to LanthaScreen Tb Kinase Activity Assay protocol.
Kinase and assay components were adjusted to final concentrations according to the kit protocol. For LRRK2: 2 nM wt human LRRK2, catalytic site, catalytic site (ThermoFisher/USA), 400 nM peptide, 38 µM ATP in 1× Kinase Buffer A.
Basic protocol for TR-FRET LanthaScreen Tb Kinase Activity Assay inhibitor studies involved two steps:
Enzymatic step: Addition of […] of test compound in corresponding DMSO dilutions, 5 μL of kinase/substrate mixture, 5 μL of ATP into 384 well small volume plates. Incubation for 120 minutes at room temperature.
Detection step: Addition of 10 μL EDTA & antibody, read plate after 60 minutes. Data analysis of emission ratios according to KinEASE assay protocol.
Kinase and assay components were adjusted to final concentrations according to the kit protocol.

T1 sequence (Q5S007 970-2527 limits assumed): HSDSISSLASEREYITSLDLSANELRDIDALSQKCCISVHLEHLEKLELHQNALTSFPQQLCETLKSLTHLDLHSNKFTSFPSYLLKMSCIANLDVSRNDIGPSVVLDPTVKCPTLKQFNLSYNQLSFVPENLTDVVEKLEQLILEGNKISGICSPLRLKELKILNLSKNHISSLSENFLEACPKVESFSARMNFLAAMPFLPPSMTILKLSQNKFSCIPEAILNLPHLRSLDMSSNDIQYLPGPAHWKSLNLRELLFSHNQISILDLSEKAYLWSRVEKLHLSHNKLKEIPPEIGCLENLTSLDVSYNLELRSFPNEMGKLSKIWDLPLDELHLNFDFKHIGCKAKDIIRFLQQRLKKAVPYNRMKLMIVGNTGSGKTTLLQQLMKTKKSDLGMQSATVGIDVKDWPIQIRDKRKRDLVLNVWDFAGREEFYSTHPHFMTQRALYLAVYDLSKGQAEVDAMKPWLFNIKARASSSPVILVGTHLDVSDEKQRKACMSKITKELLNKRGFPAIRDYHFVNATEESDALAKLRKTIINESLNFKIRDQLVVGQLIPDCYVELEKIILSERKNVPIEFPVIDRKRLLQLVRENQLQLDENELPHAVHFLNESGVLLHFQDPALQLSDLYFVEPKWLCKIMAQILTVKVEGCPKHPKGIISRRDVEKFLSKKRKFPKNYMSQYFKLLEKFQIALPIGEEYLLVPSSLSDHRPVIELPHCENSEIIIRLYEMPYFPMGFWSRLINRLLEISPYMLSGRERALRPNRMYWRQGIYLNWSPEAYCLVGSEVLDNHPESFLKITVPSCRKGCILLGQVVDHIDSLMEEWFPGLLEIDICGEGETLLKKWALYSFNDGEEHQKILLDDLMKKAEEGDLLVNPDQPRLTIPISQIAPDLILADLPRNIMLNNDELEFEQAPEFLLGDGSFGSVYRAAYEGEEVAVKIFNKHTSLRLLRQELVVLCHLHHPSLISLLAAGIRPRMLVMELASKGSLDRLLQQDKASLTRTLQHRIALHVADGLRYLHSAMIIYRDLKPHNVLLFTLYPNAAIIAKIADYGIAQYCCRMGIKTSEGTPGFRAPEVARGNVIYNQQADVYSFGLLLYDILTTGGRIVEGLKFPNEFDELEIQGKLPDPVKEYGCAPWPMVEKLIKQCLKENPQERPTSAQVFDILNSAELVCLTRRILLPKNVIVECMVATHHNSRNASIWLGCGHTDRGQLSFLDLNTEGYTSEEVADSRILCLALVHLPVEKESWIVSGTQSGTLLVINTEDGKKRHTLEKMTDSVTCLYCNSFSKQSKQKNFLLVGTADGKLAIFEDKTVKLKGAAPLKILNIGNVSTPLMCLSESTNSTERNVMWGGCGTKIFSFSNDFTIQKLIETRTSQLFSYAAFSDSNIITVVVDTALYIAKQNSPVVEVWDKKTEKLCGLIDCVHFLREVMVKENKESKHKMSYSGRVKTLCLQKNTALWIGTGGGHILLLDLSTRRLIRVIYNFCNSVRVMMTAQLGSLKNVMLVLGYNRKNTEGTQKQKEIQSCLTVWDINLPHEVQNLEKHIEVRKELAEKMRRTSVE

| SMILES | IC50 [nM] |
| --- | --- |
| Fc1cc(F)c(C2=Nc3c(Cl)cnn3-c3cc(N4CCOCC4)ncc3N2)c(F)c1 [4-(3-chloro-5-(2,4,6-trifluorophenyl)-6H-pyrazolo[1,5-a]pyrido[3,4-f][1,3,5]triazepin-9-yl)morpholine] | < 50 |
| Fc1cccc(Cl)c1C1=Nc2c(Cl)cnn2-c2cc(N3CCOCC3)ncc2N1 [4-(3-chloro-5-(2-chloro-6-fluorophenyl)-6H-pyrazolo[1,5-a]pyrido[3,4-f][1,3,5]triazepin-9-yl)morpholine] | < 50 |
| Fc1cccc(F)c1C1=Nc2c(F)cnn2-c2cc(N3CCOCC3)ncc2N1 [4-(5-(2,6-difluorophenyl)-3-fluoro-6H-pyrazolo[1,5-a]pyrido[3,4-f][1,3,5]triazepin-9-yl)morpholine] | < 50 |
| Cc1cnn2c1N=C(c1c(F)cccc1F)Nc1cnc(N3CCOCC3)cc1-2 [4-(5-(2,6-difluorophenyl)-3-methyl-6H-pyrazolo[1,5-a]pyrido[3,4-f][1,3,5]triazepin-9-yl)morpholine] | < 50 |
| Fc1cccc(F)c1C1=Nc2ccnn2-c2cc(N3CCOCC3)ncc2N1 [4-(5-(2,6-difluorophenyl)-6H-pyrazolo[1,5-a]pyrido[3,4-f][1,3,5]triazepin-9-yl)morpholine] | < 50 |
| Fc1cccc(F)c1C1=Nc2c(Cl)cnn2-c2cc(N3CCCOCC3)ccc2N1 [4-[3-chloro-5-(2,6-difluorophenyl)-6H-pyrazolo[1,5-a][1,3,5]benzotriazepin-9-yl]-1,4-oxazepane] | < 50 |
| Fc1cccc(Cl)c1C1=Nc2c(Cl)cnn2-c2cc(N3CCOCC3)ccc2N1 [4-[3-chloro-5-(2-chloro-6-fluoro-phenyl)-6H-pyrazolo[1,5-a][1,3,5]benzotriazepin-9-yl]morpholine] | < 50 |
| Fc1cccc(N2CCOCC2)c1C1=Nc2c(Cl)cnn2-c2cc(N3CCOCC3)ccc2N1 [4-[3-chloro-5-(2-fluoro-6-morpholino-phenyl)-6H-pyrazolo[1,5-a][1,3,5]benzotriazepin-9-yl]morpholine] | > 200 |
| Fc1cccc(F)c1C1=Nc2ccnn2-c2cc(N3CCOCC3)ccc2N1 [4-[5-(2,6-difluorophenyl)-6H-pyrazolo[1,5-a][1,3,5]benzotriazepin-9-yl]morpholine] | < 50 |
| N#Cc1cnn2c1N=C(c1c(F)cccc1F)Nc1cnc(N3CCOCC3)cc1-2 [5-(2,6-difluorophenyl)-9-morpholino-6H-pyrazolo[1,5-a]pyrido[3,4-f][1,3,5]triazepine-3-carbonitrile] | < 50 |
| O=C(NCCF)c1cnc2c(c1)-n1ncc(Cl)c1N=C(c1c(F)cccc1F)N2 [5-chloro-8-(2,6-difluorophenyl)-N-(2-fluoroethyl)-2,3,7,9,11-pentazatricyclo[8.4.0.02,6]tetradeca-1(10),3,5,7,11,13-hexaene-13-carboxamide] | < 50 |
| Fc1cccc(F)c1C1=Nc2c(Cl)cnn2-c2cc(N3CC4(COC4)C3)ccc2N1 [6-[3-chloro-5-(2,6-difluorophenyl)-6H-pyrazolo[1,5-a][1,3,5]benzotriazepin-9-yl]-2-oxa-6-azaspiro[3.3]heptane] | < 50 |
| Fc1cccc(F)c1C1=Nc2c(Cl)cnn2-c2cc(N3C4COCC3C4)ccc2N1 [6-[3-chloro-5-(2,6-difluorophenyl)-6H-pyrazolo[1,5-a][1,3,5]benzotriazepin-9-yl]-3-oxa-6-azabicyclo[3.1.1]heptane] | < 50 |
| Fc1cccc(F)c1C1=Nc2c(Cl)cnn2-c2cc(N3CCC4(CC3)COC4)ccc2N1 [7-[3-chloro-5-(2,6-difluorophenyl)-6H-pyrazolo[1,5-a][1,3,5]benzotriazepin-9-yl]-2-oxa-7-azaspiro[3.5]nonane] | < 50 |
| Fc1cccc(F)c1C1=Nc2c(Cl)cnn2-c2cc(N3C4CCC3COC4)ccc2N1 [8-[3-chloro-5-(2,6-difluorophenyl)-6H-pyrazolo [1,5-a][1,3, 5]benzotriazepin-9-yl]-3-oxa-8-azabicyclo [3.2.1]octane] | < 50 |
| Fc1cccc(F)c1C1=Nc2c(Cl)cnn2-c2cc(Br)ccc2N1 [9-bromo-3-chloro-5-(2,6-difluorophenyl)-6H-pyrazolo[1,5-a][1,3,5]benzotriazepine] | < 50 |
| Fc1cccc(F)c1C1=Nc2c(Cl)cnn2-c2cc(N3C[C@H]4C[C@@H]3CO4)ncc2N1 [(1R,4R)-5-[5-chloro-8-(2,6-difluorophenyl)-2,3,7,9,12-pentazatricyclo[8.4.0.02,6]tetradeca-1(10),3,5,7,11,13-hexaen-13-yl]-2-oxa-5-azabicyclo[2.2.1]heptane] | < 50 |
| C[C@H]1CN(c2cc3c(cn2)NC(c2c(F)cccc2F)=Nc2c(F)cnn2-3)C[C@H](C)O1 [(2S,6S)-4-(5-(2,6-difluorophenyl)-3-fluoro-6H-pyrazolo[1,5-a]pyrido[3,4-f][1,3,5]triazepin-9-yl)-2,6-dimethylmorpholine] | 50 to 200 |

The remaining lines, values ahead:

| IC50 [nM] | SMILES |
| --- | --- |
| < 50 | CC1CN(c2ccc3c(c2)-n2ncc(Cl)c2N=C(c2c(F)cccc2F)N3)CC(C)O1 (stereo not drawn) [4-[3-chloro-5-(2,6-difluorophenyl)-6H-pyrazolo[1,5-a][1,3,5]benzotriazepin-9-yl]-2,6-dimethyl-morpholine] |
| < 50 | Fc1cccc(F)c1C1=Nc2c(Cl)cnn2-c2cc(N3CCOCC3)ccc2N1 [4-[3-chloro-5-(2,6-difluorophenyl)-6H-pyrazolo[1,5-a][1,3,5]benzotriazepin-9-yl]morpholine] |
| < 50 | Fc1cccc(F)c1C1=Nc2c(Cl)cnn2-c2cc(N3C[C@H]4C[C@@H]3CO4)ccc2N1 [(1R,4R)-5-[3-chloro-5-(2,6-difluorophenyl)-6H-pyrazolo[1,5-a][1,3,5]benzotriazepin-9-yl]-2-oxa-5-azabicyclo[2.2.1]heptane] |
| < 50 | Fc1cccc(F)c1C1=Nc2c(Cl)cnn2-c2cc(N3C[C@H]4CC[C@@H]3CO4)ccc2N1 [(1R,4R)-5-[3-chloro-5-(2,6-difluorophenyl)-6H-pyrazolo[1,5-a][1,3,5]benzotriazepin-9-yl]-2-oxa-5-azabicyclo[2.2.2]octane] |
| < 50 | Fc1cccc(F)c1C1=Nc2c(Cl)cnn2-c2cc(N3C[C@H]4CC[C@@H](C3)O4)ccc2N1 [(1R,5S)-3-[3-chloro-5-(2,6-difluorophenyl)-6H-pyrazolo[1,5-a][1,3,5]benzotriazepin-9-yl]-8-oxa-3-azabicyclo[3.2.1]octane] |
| < 50 | Fc1cccc(F)c1C1=Nc2c(Cl)cnn2-c2cc(N3C[C@@H]4C[C@H]3CO4)ccc2N1 [(1S,4S)-5-[3-chloro-5-(2,6-difluorophenyl)-6H-pyrazolo[1,5-a][1,3,5]benzotriazepin-9-yl]-2-oxa-5-azabicyclo[2.2.1]heptane] |
| < 50 | C[C@@H]1CN(c2ccc3c(c2)-n2ncc(Cl)c2N=C(c2c(F)cccc2F)N3)C[C@@H](C)O1 [(2R,6R)-4-(3-chloro-5-(2,6-difluorophenyl)-6H-benzo[f]pyrazolo[1,5-a][1,3,5]triazepin-9-yl)-2,6-dimethylmorpholine] |
| 50 to 200 | C[C@@H]1CN(c2ccc3c(c2)-n2ncc(Cl)c2N=C(c2c(F)cccc2F)N3)C[C@H](C)O1 [(2R,6S)-4-(3-chloro-5-(2,6-difluorophenyl)-6H-benzo[f]pyrazolo[1,5-a][1,3,5]triazepin-9-yl)-2,6-dimethylmorpholine] |
| < 50 | C[C@H]1CN(c2ccc3c(c2)-n2ncc(Cl)c2N=C(c2c(F)cccc2F)N3)C[C@H](C)O1 [(2S,6S)-4-(3-chloro-5-(2,6-difluorophenyl)-6H-benzo[f]pyrazolo[1,5-a][1,3,5]triazepin-9-yl)-2,6-dimethylmorpholine] |
